From US20260200979A1, “PEPTIDE FOR CARTILAGE REGENERATION, AND USES THEREOF” (CAREGEN CO., LTD., priority 2022, published 2026)
Ends that are not written are not given here.

Tested on: human-derived chondrocytes (C28/I2, human chondrocyte cell line)
Experiment: CCK-8 cytotoxicity assay
Format: cell-based
Conditions: C28/I2 cells, different concentrations, 3 days, 450 nm
Experimental: The cytotoxicity of Peptide-1 or Peptide-2 upon addition to human-derived chondrocytes (C28/I2, human chondrocyte cell line) was analyzed using a CCK-8 assay.
Specifically, human-derived chondrocytes were seeded in a 96-well plate at a density of 3×10^3 cells/well and cultured in DMEM medium (cat. 11995-065, Gibco) for 24 hours. […] Meanwhile, as a negative control group, an experimental group to which the peptide was not added was used.

| Substance | cytotoxicity (CCK-8 activity) |
| --- | --- |
| KFLIK [Peptide-2, KFLIK] | did not exhibit toxicity |
| PYYRI [Peptide-1, PYYRI] | did not exhibit toxicity |
